The text below walks through data of US9896522B2, “Solid phase fluorescence labeling reagents and uses thereof” (The Texas A&M University System, priority 2010, dated 2018).

Molecules are shown by their SMILES.

Data set [1] can be described thus: fluorescence emission spectra at different pH values. Format: physicochemical. Conditions: fluorescence emission spectrum. Here is the method:
It was also developed to have pH-independent fluorescence properties which are important for CE applications. […] The molar absorbance and relative quantum yield values were also determined using Rhodamine 6G as a standard. UV absorbance spectra were recorded using a Beckman 168 photodiode detector during the HILIC separations. The eluent compositions at the time of detection were 26 mM NH4HCO2 74% ACN/water for APTS, 24 mM NH4HCO2 76% ACN/water for trisulfonamide 22 and 10 mM MOPS with 5 mM NaOH in 76% ACN/water for 33. Fluorescence spectra at different pH values were recorded on a Shimadzu RF-5301PC spectrofluorometer.

Data set [2] in a line: UV absorbance spectra and molar absorbance. Format: physicochemical. Here is the method:
UV absorbance spectra were recorded using a Beckman 168 photodiode detector during the HILIC separations. The eluent compositions at the time of detection were 26 mM NH4HCO2 74% ACN/water for APTS, 24 mM NH4HCO2 76% ACN/water for trisulfonamide 22 and 10 mM MOPS with 5 mM NaOH in 76% ACN/water for 33. Fluorescence spectra at different pH values were recorded on a Shimadzu RF-5301PC spectrofluorometer. The buffers used are tabulated below: UV absorbance and fluorescence spectra for the quantum yield determinations were acquired using a Varian 100 Bio UV-Vis spectrophotometer and a Varian Cary Eclipse fluorescence spectrometer, respectively. The samples were dissolved in a pH 9 0.1M aqueous sodium bicarbonate buffer.

The conditions of data set [3]: buffer, pH 2; cited from earlier work.

Consider `CN(CCS(=O)(=O)O)S(=O)(=O)c1cc(N)c2ccc3c(S(=O)(=O)N(C)CCS(=O)(=O)O)cc(S(=O)(=O)N(C)CCS(=O)(=O)O)c4ccc1c2c34` [compound 22], for which, in data set [1], the λmax em was found to be 540 nm. Moreover, in data set [2] (relative to APTS), the “shift of λmax ex towards longer wavelength” value stood at 44 nm. In the case of `Nc1cc(S(=O)(=O)O)c2ccc3c(S(=O)(=O)O)cc(S(=O)(=O)O)c4ccc1c2c43` [APTS, 8-Aminopyrene-1,3,6-trisulfonic acid, reference compound], in data set [2] (excitation at 488 nm), the “share of the maximum absorbance that can be used at 488 nm” value was “about 4%”.

Turning to `CCCCCCCCCCCC1(C)OCC(COCCCS(=O)(=O)[O-])O1.[Na+]` (stereo not shown) [ALS], in data set [3], the half life is 8 min.
